Assays:
Hepatitis B virus [1] = test: Antiviral activity against HBV infected in human HepG2(2.2.15) cells assessed as inhibition of viral DNA level after 8 days by RT-PCR method; type: functional, cell-based; details: HepG2 2.2.15, 192 h
Hepatitis B virus [2] = test: Antiviral activity against HBV infected in human HepG2(2.2.15) cells assessed as inhibition of viral DNA level; type: functional, cell-based
Hepatitis B virus [3] = test: Antiviral activity against HBV infected in human HuS-E/2 cells assessed as inhibition of viral mRNA level at 50 uM treated for 20 hrs measured after 7 days by RT-PCR method relative to control; type: functional
Hepatitis B virus [4] = test: Antiviral activity against HBV infected in human HepG2(2.2.15) cells assessed as inhibition of extracellular viral DNA level; type: functional, cell-based
Hepatitis B virus [5] = test: Antiviral activity against HBV infected in human HepaRG cells assessed as reduction in viral infection after 16 hrs
Hepatitis B virus [6] = test: Antiviral activity against HBV infected in human HepAD38 cells; type: functional, cell-based
[7] = Cytotoxicity against human HepG2(2.2.15) cells assessed as reduction in cell viability after 3 days by methylene blue assay; type: cell-based
Hepatitis B virus [8] = test: Inhibition of HBV C150-Bodipy labeled capsid (1 to 150 residues) C49A/C61A/C107A mutant expressed in Escherichia coli assessed as reduction in NaCl-induced capsid assembly at 10 uM preincubated for 15 mins followed by NaCl addition measured after 1 hr by fluorescence quenching assay relative to control
Hepatitis B virus [9] = test: Antiviral activity against HBV infected in human HepG2(2.2.15) cells assessed as inhibition of viral RNA level; type: functional, cell-based
Hepatitis B virus [10] = test: Antiviral activity against HBV infected in human HepG2(2.2.15) cells assessed as inhibition of viral DNA level after 6 days by Southern blot analysis; type: functional, cell-based; details: HepG2 2.2.15, 144 h
Hepatitis B virus [11] = test: Antiviral activity against HBV infected in human HepG2.N9 cells assessed as reduction in HBeAg level measured on day 8 post infection; type: functional, cell-based; details: 192 h
Hepatitis B virus [12] = test: Antiviral activity against HBV infected in human HepG2(2.2.15) cells assessed as inhibition of viral DNA level after 24 hrs by RT-PCR method; type: functional, cell-based; details: HepG2 2.2.15, 24 h
Hepatitis B virus [13] = test: Antiviral activity against HBV infected in human HepG2(2.2.15) cells assessed as reduction in intracellular viral capsid level at antiviral IC50 by immunoblot method; type: functional
[14] = Cytotoxicity against human HepG2(2.2.15) cells after 24 hrs by MTS assay; type: cell-based

CCOC(=O)c1sc(-c2nc(C)cs2)nc1CC(C)C
IC50 (Hepatitis B virus [1]): 140 nM

CCOC(=O)C1=C(CN2CCOCC2)NC(c2nccs2)=NC1c1ccc(F)cc1Br (configuration not stated)
IC50 (Hepatitis B virus [2]): 12 nM

O=C(O[C@@H]1Cc2c(O)cc(O)cc2O[C@@H]1c1cc(O)c(O)c(O)c1)c1cc(O)c(O)c(O)c1 [EPIGALOCATECHIN GALLATE]
inhibition at 50 µM (Hepatitis B virus [3]): > 80%

CC(=O)Oc1ccccc1C(=O)Nc1ncc([N+](=O)[O-])s1 [NITAZOXANIDE]
IC50 (Hepatitis B virus [4]): 120 nM

C/C=C/C[C@@H](C)[C@@H](O)[C@H]1C(=O)N[C@@H](CC)C(=O)N(C)CC(=O)N(C)[C@@H](CC(C)C)C(=O)N[C@@H](C(C)C)C(=O)N(C)[C@@H](CC(C)C)C(=O)N[C@@H](C)C(=O)N[C@H](C)C(=O)N(C)[C@@H](CC(C)C)C(=O)N(C)[C@@H](CC(C)C)C(=O)N(C)[C@@H](C(C)C)C(=O)N1C [CYCLOSPORINE]
IC50 (Hepatitis B virus [5]): < 200 nM

COc1ccccc1/C(Br)=C(/NC(=O)c1ccc([N+](=O)[O-])cc1)C(=O)N1CCCCC1
IC50 (Hepatitis B virus [6]): 130 nM

COC(=O)C1=C(CN2CCOCC2)NC(c2nccs2)=N[C@H]1c1ccc(F)cc1Br
IC50 (Hepatitis B virus [2]): 11 nM

O=c1[nH][nH]c(=O)c2c(-c3ccc4c(c3)OCO4)c3c4c(ccc3cc12)OCO4
CC50 at 72 h [7]: 9000 nM

O=C(Nc1ncc([N+](=O)[O-])s1)c1ccccc1O [TIZOXANIDE]
IC50 (Hepatitis B virus [4]): 150 nM

O=C(Nc1ccc(F)c(Cl)c1)N1CCCN(c2c(Cl)cncc2Cl)CC1
inhibition (Hepatitis B virus [8]): > 50%

CC(=O)[C@]1(O)CC[C@@]2(O)[C@]1(C)[C@H](OC(=O)/C=C(\C)C(C)C)C[C@@H]1[C@@]3(C)CC[C@H](O)CC3=CC[C@]12O [CAUDATIN]
IC50 (Hepatitis B virus [2]): 40600 nM

CCOC(=O)C1=C(C)NC(c2ncccc2F)=N[C@@H]1c1ccc(F)cc1Cl
IC50 (Hepatitis B virus [2]): 150 nM

CC(C)Cc1nc(-c2nccs2)sc1C(=O)NCc1ccc(F)cc1
IC50 (Hepatitis B virus [9]): 1330 nM

O=C1OCc2c1cc1ccc3c(c1c2-c1ccc2c(c1)OCO2)OCO3 [HELIOXANTHIN]
CC50 at 72 h [7]: 6000 nM
IC50 (Hepatitis B virus [10]): 1000 nM

CCCCC1=NC2(CCCC2)C(=O)N1Cc1ccc(-c2ccccc2-c2nnn[nH]2)cc1 [IRBESARTAN]
IC50 (Hepatitis B virus [11]): 3300 nM

O=C(CNC(=O)c1ccc(F)cc1)Nc1ccc(Cl)nc1Cl
IC50 (Hepatitis B virus [12]): 880 nM
inhibition (INH) (Hepatitis B virus [13]): 51%
CC50 at 24 h [14]: 144000 nM

O=c1cc(-c2ccc(O)c(-c3c(O)cc4oc(-c5ccc(O)cc5)cc(=O)c4c3O)c2)oc2cc(O)cc(O)c12 [ROBUSTAFLAVONE]
IC50 (Hepatitis B virus [2]): 250 nM

CCOC(=O)C1=C(C)NC(c2c(F)cc(F)cc2F)=N[C@H]1c1ccc(F)cc1Cl
IC50 (Hepatitis B virus [2]): 280 nM

CC(=O)Nc1ccc(-c2cc(C)c(=O)n(Cc3ccc(Cl)cc3)n2)cc1
IC50 (Hepatitis B virus [1]): 1500 nM

— ChEMBL document CHEMBL4011615, “Past, Current, and Future Developments of Therapeutic Agents for Treatment of Chronic Hepatitis B Virus Infection” (J Med Chem, 2017)
